Experimental data reported in patent US20260193264A1, “BENZOYPARAZINE PYRAZINES AND THEIR USES” (FOGHORN THERAPEUTICS INC., priority 2022, published 2026).

Experiments:
[1] = biological target: T1, HiBit-BRG1 fusion protein in stable HeLa cell line expressing HiBit-BRG1 and LgBit (Homo sapiens, UniProt P51532); experiment: HiBiT-BRG1 cell-based degradation assay (Nano-Glo HiBiT, 24 h); settings: HeLa HiBit-BRG1/LgBit cells; for Dmax: top dose 30 μM, read-out: BRG1 HiBit Degradation Maximum (%); for DC50: read-out: BRMG1 HiBit Degradation IC50
T1 construct: expressed in transfected cells
T1 sequence (P51532 whole entry, the tested form may be a part): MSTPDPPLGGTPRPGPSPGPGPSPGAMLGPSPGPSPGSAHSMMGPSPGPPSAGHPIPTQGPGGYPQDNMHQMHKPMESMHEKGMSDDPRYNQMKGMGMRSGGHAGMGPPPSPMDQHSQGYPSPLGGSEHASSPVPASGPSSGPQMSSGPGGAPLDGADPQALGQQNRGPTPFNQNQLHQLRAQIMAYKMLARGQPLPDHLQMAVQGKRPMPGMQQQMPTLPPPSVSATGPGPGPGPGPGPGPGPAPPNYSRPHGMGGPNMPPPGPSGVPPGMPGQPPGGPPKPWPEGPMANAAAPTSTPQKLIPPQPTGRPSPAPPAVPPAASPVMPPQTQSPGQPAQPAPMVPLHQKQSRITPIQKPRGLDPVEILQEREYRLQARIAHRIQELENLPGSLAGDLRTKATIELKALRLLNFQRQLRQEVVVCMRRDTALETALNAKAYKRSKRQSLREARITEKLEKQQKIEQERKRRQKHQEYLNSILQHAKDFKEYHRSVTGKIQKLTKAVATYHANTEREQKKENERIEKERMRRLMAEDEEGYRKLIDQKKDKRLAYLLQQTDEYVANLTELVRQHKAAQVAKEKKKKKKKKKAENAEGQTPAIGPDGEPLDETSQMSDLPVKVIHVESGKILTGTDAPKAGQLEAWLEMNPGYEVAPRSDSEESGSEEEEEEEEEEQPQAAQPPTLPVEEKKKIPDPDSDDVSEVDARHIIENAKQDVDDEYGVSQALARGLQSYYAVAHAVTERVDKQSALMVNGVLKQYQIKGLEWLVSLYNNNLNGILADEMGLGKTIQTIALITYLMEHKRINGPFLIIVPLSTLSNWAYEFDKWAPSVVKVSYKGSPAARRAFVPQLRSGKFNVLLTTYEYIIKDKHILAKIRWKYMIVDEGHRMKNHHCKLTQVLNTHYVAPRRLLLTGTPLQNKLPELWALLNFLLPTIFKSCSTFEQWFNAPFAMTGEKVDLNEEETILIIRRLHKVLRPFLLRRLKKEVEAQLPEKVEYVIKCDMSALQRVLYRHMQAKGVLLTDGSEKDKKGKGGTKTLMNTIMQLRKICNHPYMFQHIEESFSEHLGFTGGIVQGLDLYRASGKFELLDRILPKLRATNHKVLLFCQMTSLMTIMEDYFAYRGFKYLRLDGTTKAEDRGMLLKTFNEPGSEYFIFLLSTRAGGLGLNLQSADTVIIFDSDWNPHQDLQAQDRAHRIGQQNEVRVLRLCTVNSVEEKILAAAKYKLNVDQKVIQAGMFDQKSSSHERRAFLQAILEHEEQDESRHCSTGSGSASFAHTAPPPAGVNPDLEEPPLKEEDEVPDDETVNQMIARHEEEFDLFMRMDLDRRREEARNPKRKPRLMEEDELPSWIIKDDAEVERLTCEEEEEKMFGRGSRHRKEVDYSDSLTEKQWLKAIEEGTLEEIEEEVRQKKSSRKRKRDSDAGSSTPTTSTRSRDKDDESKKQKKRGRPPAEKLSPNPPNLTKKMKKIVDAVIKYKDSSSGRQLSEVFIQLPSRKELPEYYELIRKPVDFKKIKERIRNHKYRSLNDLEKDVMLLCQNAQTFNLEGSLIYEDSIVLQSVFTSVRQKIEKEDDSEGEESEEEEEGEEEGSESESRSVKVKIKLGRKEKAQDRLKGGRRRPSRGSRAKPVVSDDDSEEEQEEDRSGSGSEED
How it was run: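 Degradation calculated from NanoBiT luminescence relative to DMSO-treated cells (high) and cells given 2 μM known BRM/BRG1 degrader (low). HeLa cells stably expressing HiBiT-BRG1 plus LgBiT were exposed to compound for 24 h before lytic HiBiT detection.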

[2] = biological target: T2, HiBiT-BRM fusion protein in stable HeLa cell line (Homo sapiens, UniProt P51531); experiment: HiBiT-BRM cell-based degradation assay (Nano-Glo HiBiT Lytic Detection, 24 h); set-up: DC50: scale not given here; settings: HeLa HiBiT-BRM cells; for DC50: read-out: BRM HiBit Degradation IC50; for BRM HiBit Degradation Maximum (%): top dose 30 μM
T2 construct: expressed in transfected cells
T2 sequence (P51531 whole entry, the tested form may be a part): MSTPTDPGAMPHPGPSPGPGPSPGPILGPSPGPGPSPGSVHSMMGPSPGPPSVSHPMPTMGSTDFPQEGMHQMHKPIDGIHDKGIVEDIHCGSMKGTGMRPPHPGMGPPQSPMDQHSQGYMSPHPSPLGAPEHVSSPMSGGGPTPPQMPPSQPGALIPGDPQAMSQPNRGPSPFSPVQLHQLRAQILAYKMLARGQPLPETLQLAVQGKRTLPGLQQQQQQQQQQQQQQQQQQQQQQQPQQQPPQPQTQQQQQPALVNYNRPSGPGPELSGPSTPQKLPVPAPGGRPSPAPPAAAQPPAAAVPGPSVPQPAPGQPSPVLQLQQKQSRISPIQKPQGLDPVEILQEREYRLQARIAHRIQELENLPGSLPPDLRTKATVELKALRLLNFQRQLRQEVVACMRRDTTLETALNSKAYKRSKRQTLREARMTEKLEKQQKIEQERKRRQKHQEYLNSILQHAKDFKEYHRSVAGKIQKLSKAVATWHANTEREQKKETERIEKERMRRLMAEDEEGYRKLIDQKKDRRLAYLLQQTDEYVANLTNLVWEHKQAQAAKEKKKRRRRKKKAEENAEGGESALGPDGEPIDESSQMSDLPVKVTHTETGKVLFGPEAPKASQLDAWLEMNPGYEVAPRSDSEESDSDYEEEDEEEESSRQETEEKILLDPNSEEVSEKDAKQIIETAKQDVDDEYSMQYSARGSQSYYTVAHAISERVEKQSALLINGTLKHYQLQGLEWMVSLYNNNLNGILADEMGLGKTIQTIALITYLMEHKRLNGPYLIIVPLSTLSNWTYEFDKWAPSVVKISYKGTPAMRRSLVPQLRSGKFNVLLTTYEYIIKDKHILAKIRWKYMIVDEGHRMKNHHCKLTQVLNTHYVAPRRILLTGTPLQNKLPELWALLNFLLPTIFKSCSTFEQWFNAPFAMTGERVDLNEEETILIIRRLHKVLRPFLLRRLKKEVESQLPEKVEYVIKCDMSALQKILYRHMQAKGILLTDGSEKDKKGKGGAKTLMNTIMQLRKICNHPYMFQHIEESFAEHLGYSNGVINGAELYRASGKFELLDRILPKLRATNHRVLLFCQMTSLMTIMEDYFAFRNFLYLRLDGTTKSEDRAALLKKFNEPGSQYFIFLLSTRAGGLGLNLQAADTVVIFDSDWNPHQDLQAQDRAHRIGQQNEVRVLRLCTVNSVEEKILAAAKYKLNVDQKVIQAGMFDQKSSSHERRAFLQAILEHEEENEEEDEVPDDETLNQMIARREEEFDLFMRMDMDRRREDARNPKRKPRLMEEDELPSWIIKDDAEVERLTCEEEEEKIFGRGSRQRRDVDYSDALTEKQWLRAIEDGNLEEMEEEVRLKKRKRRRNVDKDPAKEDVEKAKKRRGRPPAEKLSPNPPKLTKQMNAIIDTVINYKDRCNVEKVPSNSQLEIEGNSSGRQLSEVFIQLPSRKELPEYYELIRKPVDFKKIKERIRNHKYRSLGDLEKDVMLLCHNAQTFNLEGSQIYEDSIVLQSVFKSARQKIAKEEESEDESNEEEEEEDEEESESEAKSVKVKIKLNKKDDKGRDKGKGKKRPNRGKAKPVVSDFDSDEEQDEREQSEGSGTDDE
How it was run: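 HiBiT-tagged BRM levels in a stable HeLa line are measured after one day of compound treatment (up to 30 μM final, duplicate 10-point curves) by adding LgBiT lytic reagent and reading bioluminescence; values are expressed relative to vehicle and a 2 μM degrader control.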

SMILES | Dmax [1] [%] | DC50 [2] [nM] | DC50 [1] [nM] | BRM HiBit Degradation Maximum (%) [2]
Cc1ncsc1-c1ccc([C@H](C)NC(=O)[C@@H]2C[C@@H](O)CN2C(=O)[C@@H](c2cc(N3CCC4(CCC(c5ccc6cc(-c7ccccc7O)nnc6c5)CC4)CC3)no2)C(C)C)cc1 [Compound 96, (2S,4R)-4-hydroxy-1-((R)-2-(3-(9-(3-(2-hydroxyphenyl)cinnolin-7-yl)-3-azaspiro[5.5]undecan-3-yl)isoxazol-5-yl)-3-methylbutanoyl)-N-((S)-1-(4-(4-methylthiazol-5-yl)phenyl)ethyl)pyrrolidine-2-carboxamide] | > 75 | < 10 | > 10 | A (“A” indicates maximum degradation ≥75%)
Cc1ncsc1-c1ccc([C@H](C)NC(=O)[C@@H]2C[C@@H](O)CN2C(=O)[C@@H](c2cc(-c3ccc4nnc(-c5ccccc5O)cc4c3)no2)C(C)C)cc1 [Compound 97, (2S,4R)-4-hydroxy-1-[(2R)-2-{3-[3-(2-hydroxyphenyl)cinnolin-6-yl]-1,2-oxazol-5-yl}-3-methylbutanoyl]-N-[(1S)-1-[4-(4-methyl-1,3-thiazol-5-yl)phenyl]ethyl]pyrrolidine-2-carboxamide] | > 75 | < 10 | < 10 | A (“A” indicates maximum degradation ≥75%)
Cc1ncsc1-c1ccc([C@H](C)NC(=O)[C@@H]2C[C@@H](O)CN2C(=O)[C@@H](c2cc(N3CCC4(CCN(c5ccc6nnc(-c7ccccc7O)cc6c5)C4)C3)no2)C(C)C)cc1 (stereo partly drawn) [Compound 98, (2S,4R)-4-hydroxy-1-((2R)-2-(3-(7-(3-(2-hydroxyphenyl)cinnolin-6-yl)-2,7-diazaspiro[4.4]nonan-2-yl)isoxazol-5-yl)-3-methylbutanoyl)-N-((S)-1-(4-(4-methylthiazol-5-yl)phenyl)ethyl)pyrrolidine-2-carboxamide] | > 75 | < 10 | > 10 | A (“A” indicates maximum degradation ≥75%)
Cc1ncsc1-c1ccc([C@H](C)NC(=O)[C@@H]2C[C@@H](O)CN2C(=O)[C@@H](c2cc(N3CC[C@@]4(CCN(c5ccc6cc(-c7ccccc7O)nnc6c5)C4)C3)no2)C(C)C)cc1 [Compound 99, (2S,4R)-4-hydroxy-1-((R)-2-(3-((R)-7-(3-(2-hydroxyphenyl)cinnolin-7-yl)-2,7-diazaspiro[4.4]nonan-2-yl)isoxazol-5-yl)-3-methylbutanoyl)-N-((S)-1-(4-(4-methylthiazol-5-yl)phenyl)ethyl)pyrrolidine-2-carboxamide] | > 75 | < 10 | < 10 | A (“A” indicates maximum degradation ≥75%)
Cc1ncsc1-c1ccc([C@H](C)NC(=O)[C@@H]2C[C@@H](O)CN2C(=O)[C@@H](c2cc(N3CC4(CCN4c4ccc5cc(-c6ccccc6O)nnc5c4)C3)no2)C(C)C)cc1 [Compound 100, (2S,4R)-4-hydroxy-1-((R)-2-(3-(1-(3-(2-hydroxyphenyl)cinnolin-7-yl)-1,6-diazaspiro[3.3]heptan-6-yl)isoxazol-5-yl)-3-methylbutanoyl)-N-((S)-1-(4-(4-methylthiazol-5-yl)phenyl)ethyl)pyrrolidine-2-carboxamide] | < 50 | > 10 | – | B (“B” indicates maximum degradation ≥50%)
Cc1ncsc1-c1ccc([C@H](C)NC(=O)[C@@H]2C[C@@H](O)CN2C(=O)[C@@H](c2cc(N3CCC[C@@H](c4ccc5nnc(-c6ccccc6O)cc5c4)C3)no2)C(C)C)cc1 [Compound 101, (2S,4R)-4-hydroxy-1-((R)-2-(3-((S)-3-(3-(2-hydroxyphenyl)cinnolin-6-yl)piperidin-1-yl)isoxazol-5-yl)-3-methylbutanoyl)-N-((S)-1-(4-(4-methylthiazol-5-yl)phenyl)ethyl)pyrrolidine-2-carboxamide] | < 50 | > 10 | – | A (“A” indicates maximum degradation ≥75%)
Cc1ncsc1-c1ccc([C@H](C)NC(=O)[C@@H]2C[C@@H](O)CN2C(=O)[C@@H](c2cc(N3CC4(CCN4c4ccc5nnc(-c6ccccc6O)cc5c4)C3)no2)C(C)C)cc1 [Compound 102, (2S,4R)-4-hydroxy-1-((R)-2-(3-(1-(3-(2-hydroxyphenyl)cinnolin-6-yl)-1,6-diazaspiro[3.3]heptan-6-yl)isoxazol-5-yl)-3-methylbutanoyl)-N-((S)-1-(4-(4-methylthiazol-5-yl)phenyl)ethyl)pyrrolidine-2-carboxamide] | < 50 | < 10 | – | A (“A” indicates maximum degradation ≥75%)

More lines, main results first:

Dmax [1] [%] | DC50 [2] [nM] | DC50 [1] [nM] | SMILES | BRM HiBit Degradation Maximum (%) [2]
< 50 | < 10 | – | CC(C)[C@@H](C(=O)N1C[C@H](O)C[C@H]1C(=O)N[C@@H](C)c1ccc(F)cc1)c1cc(N2CC3(CN(c4ccc5cc(-c6ccccc6O)nnc5c4)C3)C2)no1 [Compound 89, (2S,4R)-N-((S)-1-(4-fluorophenyl)ethyl)-4-hydroxy-1-((R)-2-(3-(6-(3-(2-hydroxyphenyl)cinnolin-7-yl)-2,6-diazaspiro[3.3]heptan-2-yl)isoxazol-5-yl)-3-methylbutanoyl)pyrrolidine-2-carboxamide] | A (“A” indicates maximum degradation ≥75%)
> 75 | < 10 | < 10 | Cc1ncsc1-c1ccc([C@H](C)NC(=O)[C@@H]2C[C@@H](O)CN2C(=O)[C@@H](c2cc(N3CCC[C@H](c4ccc5cc(-c6ccccc6O)nnc5c4)C3)no2)C(C)C)cc1 [Compound 90, (2S,4R)-4-hydroxy-1-((R)-2-(3-((R)-3-(3-(2-hydroxyphenyl)cinnolin-7-yl)piperidin-1-yl)isoxazol-5-yl)-3-methylbutanoyl)-N-((S)-1-(4-(4-methylthiazol-5-yl)phenyl)ethyl)pyrrolidine-2-carboxamide] | A (“A” indicates maximum degradation ≥75%)
> 75 | < 10 | < 10 | Cc1ncsc1-c1ccc([C@H](C)NC(=O)[C@@H]2C[C@@H](O)CN2C(=O)[C@@H](c2cc(N3CCC[C@@H](c4ccc5cc(-c6ccccc6O)nnc5c4)C3)no2)C(C)C)cc1 [Compound 91, (2S,4R)-4-hydroxy-1-((R)-2-(3-((S)-3-(3-(2-hydroxyphenyl)cinnolin-7-yl)piperidin-1-yl)isoxazol-5-yl)-3-methylbutanoyl)-N-((S)-1-(4-(4-methylthiazol-5-yl)phenyl)ethyl)pyrrolidine-2-carboxamide] | A (“A” indicates maximum degradation ≥75%)
> 75 | < 10 | > 10 | Cc1ncsc1-c1ccc([C@H](C)NC(=O)[C@@H]2C[C@@H](O)CN2C(=O)[C@@H](c2cc(N3CCC4(CC[C@H](c5ccc6cc(-c7ccccc7O)nnc6c5)C4)CC3)no2)C(C)C)cc1 [Compound 92, (2S,4R)-4-hydroxy-1-((R)-2-(3-((S)-2-(3-(2-hydroxyphenyl)cinnolin-7-yl)-8-azaspiro[4.5]decan-8-yl)isoxazol-5-yl)-3-methylbutanoyl)-N-((S)-1-(4-(4-methylthiazol-5-yl)phenyl)ethyl)pyrrolidine-2-carboxamide] | A (“A” indicates maximum degradation ≥75%)
< 50 | < 10 | – | Cc1ncsc1-c1ccc([C@H](C)NC(=O)[C@@H]2C[C@@H](O)CN2C(=O)[C@@H](c2cc(N3CCC4(CC[C@@H](c5ccc6cc(-c7ccccc7O)nnc6c5)C4)CC3)no2)C(C)C)cc1 [Compound 93, (2S,4R)-4-hydroxy-1-((R)-2-(3-((R)-2-(3-(2-hydroxyphenyl)cinnolin-7-yl)-8-azaspiro[4.5]decan-8-yl)isoxazol-5-yl)-3-methylbutanoyl)-N-((S)-1-(4-(4-methylthiazol-5-yl)phenyl)ethyl)pyrrolidine-2-carboxamide] | A (“A” indicates maximum degradation ≥75%)
< 50 | < 10 | – | Cc1ncsc1-c1ccc([C@H](C)NC(=O)[C@@H]2C[C@@H](O)CN2C(=O)[C@@H](c2cc(N3CCC4(CC3)CC(c3ccc5cc(-c6cccc(F)c6O)nnc5c3)C4)no2)C(C)C)cc1 [Compound 94, (2S,4R)-1-((R)-2-(3-(2-(3-(3-fluoro-2-hydroxyphenyl)cinnolin-7-yl)-7-azaspiro[3.5]nonan-7-yl)isoxazol-5-yl)-3-methylbutanoyl)-4-hydroxy-N-((S)-1-(4-(4-methylthiazol-5-yl)phenyl)ethyl)pyrrolidine-2-carboxamide] | A (“A” indicates maximum degradation ≥75%)
> 75 | < 10 | < 10 | Cc1ncsc1-c1ccc([C@H](C)NC(=O)[C@@H]2C[C@@H](O)CN2C(=O)[C@@H](c2cc(N3CC4(CCN(c5ccc6cc(-c7ccccc7O)nnc6c5)CC4)C3)no2)C(C)C)cc1 [Compound 95, (2S,4R)-4-hydroxy-1-((R)-2-(3-(7-(3-(2-hydroxyphenyl)cinnolin-7-yl)-2,7-diazaspiro[3.5]nonan-2-yl)isoxazol-5-yl)-3-methylbutanoyl)-N-((S)-1-(4-(4-methylthiazol-5-yl)phenyl)ethyl)pyrrolidine-2-carboxamide] | A (“A” indicates maximum degradation ≥75%)
